What all share (assay type): cell-based, hepatitis C virus
Experiment [1] concerns genotype 2a (JFH-1) stable HCV replicon in Huh-7-derived cells. The experiment can be described thus: Stable subgenomic HCV replicon EC50, genotype 2a (Renilla luciferase). Particulars: Hepatitis C virus, stable replicon genotype 2a, 72 h, read-out: EC50 2A RLUC. The gist of the method:
(§1)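 Compounds, three-fold diluted, were applied to Huh-7-derived cells harbouring luciferase replicons (genotype 1a H77, 1b Con1, 2a JFH-1, 4a ED43, with strain-specific adaptive mutations). Seventy-two hours later, intracellular replication was gauged by Renilla luciferase activity and EC50 derived by regression.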

Experiment [2] concerns genotype 3a (S52) wild type transient HCV replicon in Huh-7-derived cells. The experiment can be described thus: Transient-transfected HCV replicon EC50, genotype 3a wild type. Particulars: Hepatitis C virus; transient-transfected replicon genotype 3a wild type, 72 h; read-out: EC50 3A WT. (In general: In antiviral work, replicon cells carry a viral genome segment that copies itself.)

Experiment [3] deals with genotype 1a (H77) wild type transient HCV replicon in Huh-7-derived cells. The experiment can be described thus: Transient-transfected HCV replicon EC50, genotype 1a wild type. The following applies: Hepatitis C virus, 72 h, transient-transfected replicon genotype 1a wild type, read-out: EC50 1A WT.
For experiment [4], the system named is genotype 1b (Con1) stable HCV replicon in Huh-7-derived cells. Nature of the experiment: Stable subgenomic HCV replicon EC50, genotype 1b (Renilla luciferase). Particulars: Hepatitis C virus, stable replicon genotype 1b, 72 h, read-out: EC50 1B RLUC. In outline:
as §1

In experiment [5] the test system is genotype 1a (H77) stable HCV replicon in Huh-7-derived cells. The experiment can be described thus: Stable subgenomic HCV replicon EC50, genotype 1a (Renilla luciferase). The following applies: Hepatitis C virus, stable replicon genotype 1a, 72 h, read-out: EC50 1A RLUC. The gist of the method: as §1
The subject of experiment [6] is genotype 1b (Con1) wild type transient HCV replicon in Huh-7-derived cells. The experiment can be described thus: Transient-transfected HCV replicon EC50, genotype 1b wild type. The following applies: Hepatitis C virus, 72 h, transient-transfected replicon genotype 1b wild type, read-out: EC50 1B WT.
Experiment [7] concerns genotype 3a (S52) stable HCV replicon in Huh-7-derived cells. The experiment can be described thus: Stable subgenomic HCV replicon EC50, genotype 3a (Renilla luciferase). Particulars: Hepatitis C virus, 72 h, read-out: EC50 3A RLUC.
For experiment [8], the system named is genotype 4a (ED43) stable HCV replicon in Huh-7-derived cells. Nature of the experiment: Stable subgenomic HCV replicon EC50, genotype 4a (Renilla luciferase). Particulars: Hepatitis C virus, 72 h, read-out: EC50 4A RLUC. In outline: as §1
The test system of experiment [9] is genotype 1a NS3/4a protease inhibitor resistant variant R155K transient HCV replicon in Huh-7-derived cells. The experiment can be described thus: Transient-transfected HCV replicon EC50, genotype 1a R155K. The following applies: Hepatitis C virus, 72 h, read-out: EC50 1A R155K, transient-transfected replicon genotype 1a R155K resistant variant, 72 h.
For experiment [10], the system named is genotype 1b NS3/4a protease inhibitor resistant variant D168A transient HCV replicon in Huh-7-derived cells. Nature of the experiment: Transient-transfected HCV replicon EC50, genotype 1b D168A. The following applies: Hepatitis C virus, 72 h, read-out: EC50 1B D168A, transient-transfected replicon genotype 1b D168A resistant variant, 72 h.

Structures are written as SMILES.

For `CC[C@@H]1[C@@H]2CN(C(=O)[C@H](C(C)(C)C)NC(=O)O[C@@H]3C[C@H]3CCCCCc3nc4ccc(OC)cc4nc3O2)[C@@H]1C(=O)N[C@]1(C(=O)NS(=O)(=O)C2(C)CC2)C[C@H]1CC(F)F` [Example 67, (1aR,5S,8S,9S,10R,22aR)-5-tert-butyl-N-[(1R,2S)-2-(2,2-difluoroethyl)-1-{[(1-methylcyclopropyl)sulfonyl]carbamoyl}cyclopropyl]-9-ethyl-14-methoxy-3,6-dioxo-1,1a,3,4,5,6,9,10,18,19,20,21,22,22a-tetradecahydro-8H-7,10-methanocyclopropa[18,19][1,10,3,6]dioxadiazacyclononadecino[11,12-b]quinoxaline-8-carboxamide], the EC50 stood at 24 nM in [1]; 107 nM in experiment [2]; 14 nM in experiment [3]; 12 nM in experiment [4]; 11 nM in experiment [5]; 10 nM in experiment [6]. Moreover, the EC50 in experiment [7] stood at 383 nM; in [8] it was 12 nM; in experiment [9], 42 nM; in experiment [10], 86 nM.

For `COc1ccc2nc3c(nc2c1)O[C@H]1CN(C(=O)[C@H](C(C)(C)C)NC(=O)O[C@H]2CC4CC(C4)[C@@H]2CCCCC3)[C@H](C(=O)N[C@]2(C(=O)NS(=O)(=O)C3CC3)C[C@H]2C(F)F)[C@@H]1C` [Example 72, (4aS,8S,11S,12S,13R,25aS)-8-tert-butyl-N-[(1R,2R)-1-[(cyclopropylsulfonyl)carbamoyl]-2-(difluoromethyl)cyclopropyl]-17-methoxy-12-methyl-6,9-dioxo-2,3,4,4a,6,7,8,9,12,13,21,22,23,24,25,25a-hexadecahydro-1H,11H-1,3:10,13-dimethanoquinoxalino[2,3-k][1,10,3,6]benzodioxadiazacyclononadecine-11-carboxamide], the EC50 came to 740 nM in experiment [1]; 642 nM in experiment [2]; 600 nM in experiment [3]; 300 nM in experiment [4]; 365 nM in [5]; 165 nM in experiment [6]. Further, the 50% effective concentration (EC50) in [7] was 1820 nM; in [8] it was 383 nM; in [9], 227 nM; in experiment [10], 687 nM.

On to `CC[C@@H]1[C@@H]2CN(C(=O)[C@H](C(C)(C)C)NC(=O)O[C@@H]3C[C@H]3CCCCCc3nc4ccc(OC)cc4nc3O2)[C@@H]1C(=O)N[C@]1(C(=O)NS(=O)(=O)C2(C)CC2)C[C@H]1C` [Example 73, (1aR,5S,8S,9S,10R,22aR)-5-tert-butyl-9-ethyl-14-methoxy-N-[(1R,2R)-2-methyl-1-{[(1-methylcyclopropyl)sulfonyl]carbamoyl}cyclopropyl]-3,6-dioxo-1,1a,3,4,5,6,9,10,18,19,20,21,22,22a-tetradecahydro-8H-7,10-methanocyclopropa[18,19][1,10,3,6]dioxadiazacyclononadecino[11,12-b]quinoxaline-8-carboxamide], for which the EC50 in experiment [1] came to 22 nM; in [2] it was 45 nM; in experiment [3], 8.8 nM; in experiment [4] it was 7.5 nM; in experiment [5], 7.9 nM; in experiment [6] it was 6.2 nM. The EC50 in experiment [7] was determined as 178 nM; in [8], 7.2 nM; in [9], 25 nM; in experiment [10], 75 nM.

With `CC[C@@H]1[C@@H]2CN(C(=O)[C@H](C(C)(C)C)NC(=O)O[C@@H]3C[C@H]3CCCCCc3nc4ccc(OC)cc4nc3O2)[C@@H]1C(=O)N[C@]1(C(=O)NS(=O)(=O)C2(F)CC2)C[C@H]1C(F)F` [Example 74, (1aR,5S,8S,9S,10R,22aR)-5-tert-butyl-N-[(1R,2R)-2-(difluoromethyl)-1-{[(1-fluorocyclopropyl)sulfonyl]carbamoyl}cyclopropyl]-9-ethyl-14-methoxy-3,6-dioxo-1,1a,3,4,5,6,9,10,18,19,20,21,22,22a-tetradecahydro-8H-7,10-methanocyclopropa[18,19][1,10,3,6]dioxadiazacyclononadecino[11,12-b]quinoxaline-8-carboxamide], the 50% effective concentration (EC50) in experiment [1] is 18 nM; in experiment [2] it was 138 nM; in experiment [3], 8.8 nM; in [4] it was 5 nM; in experiment [5], 8 nM; in experiment [6], 2.1 nM. For the same compound, the EC50 stood at 374 nM in experiment [7], 8.3 nM in [8], 44 nM in [9] and 56 nM in [10].

Regarding `CC[C@@H]1[C@@H]2CN(C(=O)[C@H](C(C)(C)C)NC(=O)O[C@@H]3C[C@H]3CCCCCc3nc4ccc(OC)cc4nc3O2)[C@@H]1C(=O)N[C@]1(C(=O)NS(=O)(=O)C2(Cl)CC2)C[C@H]1C(F)F` [Example 75, (1aR,5S,8S,9S,10R,22aR)-5-tert-butyl-N-[(1R,2R)-1-{[(1-chlorocyclopropyl)sulfonyl]carbamoyl}-2-(difluoromethyl)cyclopropyl]-9-ethyl-14-methoxy-3,6-dioxo-1,1a,3,4,5,6,9,10,18,19,20,21,22,22a-tetradecahydro-8H-7,10-methanocyclopropa[18,19][1,10,3,6]dioxadiazacyclononadecino[11,12-b]quinoxaline-8-carboxamide], the EC50 in experiment [1] came out at 18 nM; in [2], 56 nM; in experiment [3], 14 nM; in experiment [4], 6.4 nM; in [5], 9.9 nM; in experiment [6] it was 3.5 nM. The EC50 in [7] was determined as 240 nM; in [8], 10 nM; in [9], 45 nM; in [10] it was 51 nM.

For `COc1ccc2nc3c(nc2c1)O[C@H]1CN(C(=O)[C@H](C(C)(C)C)NC(=O)O[C@@]2(C)C[C@@H]2CCCCC3(F)F)[C@H](C(=O)N[C@]2(C(=O)NS(=O)(=O)C3(C)CC3)C[C@H]2C(F)F)[C@@H]1C` [Example 77, (1 aS,5S,8S,9S,10R,22aS)-5-tert-butyl-N-[(1R,2R)-2-(difluoromethyl)-1-{[(1-methylcyclopropyl)sulfonyl]carbamoyl}cyclopropyl]-18,18-difluoro-14-methoxy-1a,9-dimethyl-3,6-dioxo-1,1a,3,4,5,6,9,10,18,19,20,21,22,22a-tetradecahydro-8H-7,10-methanocyclopropa[18,19][1,10,3,6]dioxadiazacyclononadecino[11,12-b]quinoxaline-8-carboxamide], the EC50 in experiment [1] amounted to 29 nM; in experiment [2], 472 nM; in [3], 21 nM; in experiment [4], 12 nM; in experiment [5], 23 nM; in [6], 5 nM. The EC50 in experiment [7] came out at 741 nM; in [8] it was 16 nM; in experiment [9] it was 34 nM; in experiment [10] it was 80 nM.

For `COc1ccc2nc3c(nc2c1)O[C@H]1CN(C(=O)[C@H](C(C)(C)C)NC(=O)O[C@@H]2C[C@@H]4C[C@@H]4[C@H]2CCCCC3(F)F)[C@H](C(=O)N[C@]2(C(=O)NS(=O)(=O)C3(C)CC3)C[C@H]2C(F)F)[C@@H]1C` [Example 81, (1aS,2aR,6S,9S,10S,11R,23aR,23bS)-6-tert-butyl-N-[(1R,2R)-2-(difluoromethyl)-1-{[(1-methylcyclopropyl)sulfonyl]carbamoyl}cyclopropyl]-19,19-difluoro-15-methoxy-10-methyl-4,7-dioxo-1a,2,2a,4,5,6,7,10,11,19,20,21,22,23,23a,23b-hexadecahydro-1H,9H-8,11-methanocyclopropa[4′,5′]cyclopenta[1′,2′:18,19][1,10,3,6]dioxadiazacyclononadecino[11,12-b]quinoxaline-9-carboxamide], the EC50 came to 3.6 nM in experiment [1]; 4.3 nM in experiment [2]; 3.7 nM in [3]; 3.6 nM in experiment [4]; 4 nM in experiment [5]; 2.4 nM in [6]. The EC50 in experiment [7] was 12 nM; in experiment [8], 4.3 nM; in experiment [9], 2.5 nM; in experiment [10] it was 2.7 nM.

For orientation: EC50 means the concentration that produces a half-maximal response.

These data come from US10335409B2 (priority 2012, dated 2019).
